Drawing on patent publication US20240190876A1, “Tricyclic Urea Compounds As JAK2 V617F Inhibitors” (Incyte Corporation, priority 2022, published 2024), this text covers IC50, h-IntCL and AUC for six molecules.

Series [1] addresses T1, pseudo-kinase domain (JH2) of human V617F mutant JAK2 (Homo sapiens, UniProt O60674, F794H/V617F/W659A/W777A).
T1 construct: pseudo-kinase domain (JH2, amino-acids 536-812 with 3 surface mutations W659A, W777A, F794H); His (C); purchased BPS Bioscience 79498; host or cells: baculovirus expression system
The series is described as follows: JAK2 LanthaScreen JH2-V617F Binding Assay. Particulars: 50 nM JAK2-JH2 tracer, 1 hour at 25° C., read-out: JH2 V617F Bind IC50. On the procedure: JAK2 JH2-V617F binding assay utilizes pseudo-kinase domain (JH2, amino-acids 536-812 with 3 surface mutations W659A, W777A, F794H) of human V617F mutant JAK2 expressed as C-terminal His-Avi-tagged, biotinylated protein in a baculovirus expression system (BPS Bioscience, Catalog #79498). The assay was conducted in black 384-well polystyrene plates in a final reaction volume of 20 μL. JAK2 JH2-V617F (0.26 nM) was incubated with compounds (100 nL serially diluted in DMSO) in the presence of 50 nM Fluorescent JAK2-JH2 Tracer (MedChem Express Catalog #HY-102055) and 0.25 nM Streptavidin-Tb cryptate (Cisbio Part #610SATLB) in assay buffer (50 mM Tris, pH=7.5, 10 mM MgCl2, 0.01% Brij-35, 0.1% BSA, 1 mM EGTA, 5% Glycerol and 5 mM DTT). Non-specific binding was accessed in the presence of 2 mM ATP. After incubation for 1 hour at 25° C., LanthaScreen signals were read on a PHERAstar FS plate reader (BMG LABTECH). Data was analyzed with IDBS XLfit and GraphPad Prism 5.0 software using a four parameter dose response curve to determine IC50 for each compound.
In general terms: TR-FRET usually uses a lanthanide donor and a delayed reading to cut background.

The nature of series [2]: In Vitro Intrinsic Clearance. In kind it is in vitro ADME. Particulars: human liver microsomes, 1 μM compound, NADPH, scaled to human. How it is done: For in vitro metabolic stability experiments, test compounds were incubated with human liver microsomes at 37° C. The incubation mixture contained test compounds (1 μM), NADPH (2 mM), and human liver microsomes ([…]) in 100 mM phosphate buffer (pH 7.4). The mixture was pre-incubated for 2 min at 37° C. before the addition of NADPH. Reactions were commenced upon the addition of NADPH and quenched with ice-cold methanol at 0, 10, 20, and 30 min. Terminated incubation mixtures were analyzed using LC-MS/MS system. The analytical system consisted of a Shimadzu LC-30AD binary pump system and SIL-30AC autosampler (Shimadzu Scientific Instruments, Columbia, MD) coupled with a Sciex Triple Quad 6500+mass spectrometer from Applied Biosystems (Foster City, CA). […] Mobile phase A consisted of 0.1% formic acid in water, and mobile phase B consisted of 0.1% formic acid in acetonirile. The total LC-MS/MS runtime was 2.75 minutes with a flow rate of 0.75 mL/min. Peak area integrations and peak area ratio calculations were performed using Analyst software (version 1.6.3) from Applied Biosystems.
The in vitro intrinsic clearance, CLint, in vitro, was calculated from the t1/2 of test compound disappearance as CLint, in vitro=(0.693/t1/2)×(1/Cprotein), where Cprotein is the protein concentration during the incubation, and t1/2 was determined by the slope (k) of the log-linear regression analysis of the concentration versus time profiles; thus, t1/2ln2/k. The CLint, in vitro values were scaled to the in vivo values for human by using physiologically based scaling factors, hepatic microsomal protein concentrations (45 mg protein/g liver), and liver weights (21 g/kg body weight). The equation CLint=CLint, in vitro×(mg protein/g liver weight)×(g liver weight/kg body weight) was used. The in vivo hepatic clearance (CLH) was then calculated by using CLint and hepatic blood flow, Q (20 mL·min^−1kg^−1 in humans) in the well-stirred liver model disregarding all binding from CLH (Q×CLint)/(Q+CLint). The hepatic extraction ratio was calculated as CLH divided by Q.

Series [3] in a line: In Vivo Pharmacokinetics, rat oral dosing. Particulars: male, Sprague Dawley, oral gavage 3.0 mg/kg, plasma, cassette dosing. More on the design: species or system Sprague Dawley rats. How it is done:
Test compounds were administered to male Sprague Dawley rats or male and female Cynomolgus monkeys intravenously or via oral gavage. For intravenous (IV) dosing, test compounds were dosed at 1 mg/kg using a formulation of 10% dimethylacetamide (DMAC), 10% propylene glycol (PG) in acidified saline via IV bolus for rat or 10 min IV infusion for monkey. For oral (PO) dosing, test compounds were dosed at 3.0 mg/kg using 5% DMAC in 0.5% methylcellulose in citrate buffer (pH -2.5). Blood samples were collected at predose and various time points up to 24 hours postdose. All blood samples were collected using EDTA as the anticoagulant and centrifuged to obtain plasma samples. The plasma concentrations of test compounds were determined by LC-MS/MS methods. The measured plasma concentrations were used to calculate PK parameters by standard noncompartmental methods using Phoenix© WinNonlin software program (version 8.0, Pharsight Corporation) or similar software. In rats and monkeys, cassette dosing of test compounds were conducted to obtain preliminary PK parameters. In vivo pharmacokinetic experiments with male beagle dogs may be performed under the conditions described above.

Structures are written as SMILES.

T1 sequence (O60674 536-812 V617F/W659A/W777A/F794H): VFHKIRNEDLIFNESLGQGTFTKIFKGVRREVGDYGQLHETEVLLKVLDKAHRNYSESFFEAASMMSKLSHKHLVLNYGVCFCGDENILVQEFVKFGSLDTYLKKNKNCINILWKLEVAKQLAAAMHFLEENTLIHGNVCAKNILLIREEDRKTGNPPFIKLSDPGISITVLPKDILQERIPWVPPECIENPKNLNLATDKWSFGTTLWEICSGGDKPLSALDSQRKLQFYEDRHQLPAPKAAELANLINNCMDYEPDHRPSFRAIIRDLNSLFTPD

For the molecule `COc1ccc(-c2c(-c3cn(C)nc3OC)[nH]c3ncc4c(c23)n([C@H]2CC[C@@](C)(NC(=O)C3CC3)CC2)c(=O)n4C)cc1` [Example 1, N-((1s,4s)-4-(7-(3-Methoxy-1-methyl-1H-pyrazol-4-yl)-8-(4-methoxyphenyl)-3-methyl-2-oxo-3,6-dihydroimidazo[4,5-d]pyrrolo[2,3-b]pyridin-1(2H)-yl)-1-methylcyclohexyl)cyclopropanecarboxamide], the IC50 in series [1] is at most 10 nM. Moreover, the h-IntCL entry in series [2] was “‡ (‡ refers to h-IntCL of <0.7 L/h/kg)”. Moreover, the AUC in series [3] was over 1.5 µM·h.
Take `[2H]C([2H])([2H])n1ncc2cc(-c3c(-c4cn(C)nc4OC)[nH]c4ncc5c(c34)n([C@H]3CC[C@@](C)(NC(=O)C4CC4)CC3)c(=O)n5C)ccc21` [Example 2, N-((1s,4s)-4-(7-(3-Methoxy-1-methyl-1H-pyrazol-4-yl)-3-methyl-8-(1-(methyl-d3)-1H-indazol-5-yl)-2-oxo-3,6-dihydroimidazo[4,5-d]pyrrolo[2,3-b]pyridin-1(2H)-yl)-1-methylcyclohexyl)cyclopropanecarboxamide]: in series [1], the 50% inhibitory concentration (IC50) was at most 10 nM. Further, in series [2], the h-IntCL result is on record as “‡ (‡ refers to h-IntCL of <0.7 L/h/kg)”. The molecule also returned an exposure (AUC) in series [3] of 0.5 to 1.5 µM·h.
Consider `[2H]C([2H])([2H])n1cc(-c2[nH]c3ncc4c(c3c2-c2ccc(OC)cc2)n([C@H]2CC[C@@](C)(NC(=O)C3CC3)CC2)c(=O)n4C)c(F)n1` [Example 3, N-((1s,4s)-4-(7-(3-fluoro-1-(methyl-d3)-1H-pyrazol-4-yl)-8-(4-methoxyphenyl)-3-methyl-2-oxo-3,6-dihydroimidazo[4,5-d]pyrrolo[2,3-b]pyridin-1(2H)-yl)-1-methylcyclohexyl)cyclopropanecarboxamide], for which the IC50 in series [1] is at most 10 nM. Also, the h-IntCL result in series [2] is recorded as “‡ ‡ (‡ ‡ refers to h-IntCL of ≥0.7 L/h/kg to ≤1 L/h/kg)”. In series [3], this molecule came in with an area under the curve (AUC) of over 1.5 µM·h.
As to `[2H]C([2H])([2H])n1cc(-c2[nH]c3ncc4c(c3c2-c2ccc3c(cnn3C([2H])([2H])[2H])c2)n([C@H]2CC[C@@](C)(NC(=O)C3CC3)CC2)c(=O)n4C)c(F)n1` [Example 4, N-((1s,4s)-4-(7-(3-fluoro-1-(methyl-d3)-1H-pyrazol-4-yl)-3-methyl-8-(1-(methyl-d3)-1H-indazol-5-yl)-2-oxo-3,6-dihydroimidazo[4,5-d]pyrrolo[2,3-b]pyridin-1(2H)-yl)-1-methylcyclohexyl)cyclopropanecarboxamide], the IC50 in series [1] is at most 10 nM. Besides, in series [2], the h-IntCL result is listed as “‡ (‡ refers to h-IntCL of <0.7 L/h/kg)”. The molecule also displayed an exposure (AUC) in series [3] of at most 0.5 µM·h.
On to `[2H]C([2H])([2H])n1ncc2cc(-c3c(-c4cn(CC)nc4F)[nH]c4ncc5c(c34)n([C@H]3CC[C@@](C)(NC(=O)C4CC4)CC3)c(=O)n5C)ccc21` [Example 5, N-((1s,4s)-4-(7-(1-Ethyl-3-fluoro-1H-pyrazol-4-yl)-3-methyl-8-(1-(methyl-d3)-1H-indazol-5-yl)-2-oxo-3,6-dihydroimidazo[4,5-d]pyrrolo[2,3-b]pyridin-1(2H)-yl)-1-methylcyclohexyl)cyclopropanecarboxamide], for which the IC50 in series [1] was at most 10 nM. In series [2], the h-IntCL entry is listed as “‡ (‡ refers to h-IntCL of <0.7 L/h/kg)”. In series [3], this molecule had an AUC of over 1.5 µM·h.
In the case of `[2H]C([2H])([2H])n1cc(-c2[nH]c3ncc4c(c3c2-c2ccc(OC)cc2)n([C@H]2CC[C@@](C)(NC(=O)[C@H]3C[C@H]3F)CC2)c(=O)n4C([2H])([2H])[2H])c(F)n1` [Example 6, (1R,2R)-2-Fluoro-N-((1s,4S)-4-(7-(3-fluoro-1-(methyl-d3)-1H-pyrazol-4-yl)-8-(4-methoxyphenyl)-3-(methyl-d3)-2-oxo-3,6-dihydroimidazo[4,5-d]pyrrolo[2,3-b]pyridin-1(2H)-yl)-1-methylcyclohexyl)cyclopropane-1-carboxamide], in series [1], the IC50 is at most 10 nM. Besides, the h-IntCL result in series [2] is “‡ (‡ refers to h-IntCL of <0.7 L/h/kg)”. The AUC in series [3] was over 1.5 µM·h.

The term IC50 denotes the concentration at which inhibition is half-maximal. One may read the AUC as the area under the concentration-time curve, a measure of exposure. Higher therefore signals high exposure.
